Assay results taken from ChEMBL document CHEMBL1134872, “Isothiazole dioxides: synthesis and inhibition of Trypanosoma brucei protein farnesyltransferase” (2002).

Columns and labels:
[1] = molecular target: T1, Protein farnesyltransferase (Rattus norvegicus) (UniProt Q04631+Q02293); experiment: Percentage in vitro inhibition of rat protein farnesyltransferase at 50 uM; assay type: protein-complex assay
[2] = test system: Protein farnesyltransferase (Trypanosoma brucei); experiment: Percentage in vitro inhibition of recombinant Trypanosoma brucei protein farnesyltransferase at 2 uM
[3] = molecular target: T2, geranylgeranyltransferase type-I (Rattus norvegicus) (UniProt P53610+Q04631); experiment: Percentage in vitro inhibition of rat protein geranylgeranyltransferase type-I at 5 uM; assay type: protein-complex assay
Trypanosoma brucei = experiment: In vitro dose required to inhibit growth of Trypanosoma brucei; assay type: functional; settings: read-out: ED50 (the source's name)
[4] = test system: Protein farnesyltransferase (Trypanosoma brucei); experiment: Percentage in vitro inhibition of recombinant Trypanosoma brucei protein farnesyltransferase at 5 uM
[5] = molecular target: T2, geranylgeranyltransferase type-I (Rattus norvegicus); experiment: Percentage in vitro inhibition of rat protein geranylgeranyltransferase type-I at 50 uM; assay type: protein-complex assay
[6] = molecular target: T1, Protein farnesyltransferase (Rattus norvegicus); experiment: Percentage in vitro inhibition of rat protein farnesyltransferase at 5 uM; assay type: protein-complex assay
[7] = molecular target: T1, Protein farnesyltransferase (Rattus norvegicus); experiment: Percentage in vitro inhibition of rat protein farnesyltransferase at 100 uM; assay type: protein-complex assay
[8] = molecular target: T2, geranylgeranyltransferase type-I (Rattus norvegicus); experiment: Percentage in vitro inhibition of rat protein geranylgeranyltransferase type-I at 100 uM; assay type: protein-complex assay
[9] = test system: Protein farnesyltransferase (Trypanosoma brucei); experiment: Percentage in vitro inhibition of recombinant Trypanosoma brucei protein farnesyltransferase at 100 uM
[10] = molecular target: T2, geranylgeranyltransferase type-I (Rattus norvegicus); experiment: Percentage in vitro inhibition of rat protein geranylgeranyltransferase type-I at 2 uM; assay type: protein-complex assay
[11] = molecular target: T1, Protein farnesyltransferase (Rattus norvegicus); experiment: Percentage in vitro inhibition of rat protein farnesyltransferase at 2 uM; assay type: protein-complex assay

Row | inhibition [1] | inhibition [2] | inhibition [5] | inhibition [7] | inhibition [8] | inhibition [9] | Structure (SMILES) | other results
1 | 7% | 13% | – | – | – | – | CCN(CC)C1=NS(=O)(=O)C(C2CC(c3c(C)c(C)c(C)c(C)c3C)=NO2)=C1c1ccc(OC)cc1 (stereo unspecified) | –
2 | 21% | 50% | 25% | – | – | – | CCN(CC)C1=NS(=O)(=O)C(C2CC(c3c(C)cc(C)cc3C)=NO2)=C1c1ccc(OC)cc1 (stereo unspecified) | inhibition [3]: 15%; EC50 (Trypanosoma brucei): 10 µM; inhibition [4]: 66%; inhibition [6]: 0%
3 | 8% | 0% | 20% | – | – | – | CCN(CC)C1=NS(=O)(=O)C(C2CC(c3ccc(Cl)cc3)=NO2)=C1c1ccc(OC)cc1 (stereo unspecified) | –
4 | 8% | 0% | 11% | – | – | – | CCN(CC)C1=NS(=O)(=O)C(c2cc(-c3c(C)cc(C)cc3C)no2)=C1c1ccc(OC)cc1 | –
5 | – | – | – | 5% | 17% | 62% | CCN(CC)C1=NS(=O)(=O)C(Sc2ccccc2)=C1c1ccc(OC)cc1 | –
6 | 2% | 28% | 7% | – | – | – | CCN(CC)C1=NS(=O)(=O)C(C2CC(c3c(C)c(Cl)c(C)c(Cl)c3C)=NO2)=C1c1ccc(OC)cc1 (stereo unspecified) | –
7 | – | – | – | 5% | 25% | 29% | CCN(CC)C1=NS(=O)(=O)C(c2cn(S(=O)(=O)c3ccccc3)c3ccccc23)=C1c1ccc(OC)cc1 | –
8 | 9% | 10% | 12% | – | – | – | CCOC1C(c2c(C)cc(C)cc2C)=NOC1C1=C(c2ccc(OC)cc2)C(N(CC)CC)=NS1(=O)=O (stereo unspecified) | –
9 | 22% | 8% | 17% | – | – | – | CCN(CC)C1=NS(=O)(=O)C(C2CC(c3c(C)cccc3C)=NO2)=C1c1ccc(OC)cc1 (stereo unspecified) | –
10 | – | – | – | 27% | 56% | 43% | CCN(CC)C1=NS(=O)(=O)C(C)=C1c1ccc(OC)cc1 | –
11 | 18% | 2% | 8% | – | – | – | CCN(CC)C1=NS(=O)(=O)C(C2CC(c3ccc([N+](=O)[O-])cc3)=NO2)=C1c1ccc(OC)cc1 (stereo unspecified) | –
12 | – | – | – | 0% | 28% | 25% | CCN(CC)C1=NS(=O)(=O)C(SC/C=C(\C)CC/C=C(/C)CCC=C(C)C)=C1c1ccc(OC)cc1 | –
13 | – | – | – | 6% | 20% | 52% | CCN(CC)C1=NS(=O)(=O)C(SC2CCCCC2)=C1c1ccc(OC)cc1 | –
14 | 22% | 2% | 0% | – | – | – | CCN(CC)C1=NS(=O)(=O)C(C2CC(c3ccccc3C)=NO2)=C1c1ccc(OC)cc1 (stereo unspecified) | –
15 | – | – | – | 0% | 26% | 13% | CCN(CC)C1=NS(=O)(=O)C(c2ccccc2)=C1c1ccc(OC)cc1 | –
16 | – | – | – | 3% | 7% | 12% | CCN(CC)C1=NS(=O)(=O)C(c2ccccn2)=C1c1ccc(OC)cc1 | –
17 | – | 0% | – | – | – | – | CCN(CC)C1=NS(=O)(=O)C(C#Cc2ccccc2)=C1c1ccc(OC)cc1 | inhibition [10]: 7%; inhibition [11]: 2%
18 | – | – | – | – | – | – | CCN(CC)C1=NS(=O)(=O)C=C1c1ccc(OC)cc1 | inhibition [3]: 12%; inhibition [4]: 0%; inhibition [6]: 0%
19 | – | – | – | 5% | 36% | 7% | CCN(CC)C1=NS(=O)(=O)C(SC)=C1c1ccc(OC)cc1 | –
20 | 13% | 8% | 17% | – | – | – | CCN(CC)C1=NS(=O)(=O)C(C2CC(c3ccc(OC)cc3)=NO2)=C1c1ccc(OC)cc1 (stereo unspecified) | –
21 | 14% | 32% | 45% | – | – | – | CCN(CC)C1=NS(=O)(=O)C(C2CC(c3c(Cl)cccc3Cl)=NO2)=C1c1ccc(OC)cc1 (stereo unspecified) | –
